Tests used:
Aiolos = Aiolos (Homo sapiens, UniProt Q96SW2+Q9UKT9); conditions: for Dmax (maximal degradation achieved), Aiolos: MM1S cells, 24 hours treatment, normalized to tubulin
MM1S cells = conditions: read-out: IC50 inhibition of cell proliferation, 72 hours, MTS assay
CRBN = CRBN (Homo sapiens, UniProt Q96SW2); test: SPR binding assay with immobilized His-tagged CRBN; conditions: for Kd: read-out: CRBN Kd, surface plasmon resonance, average of at least 2 experiments, errors = standard error of the mean, N.B. = no binding observed
CRBN, sequence (Q96SW2 whole entry): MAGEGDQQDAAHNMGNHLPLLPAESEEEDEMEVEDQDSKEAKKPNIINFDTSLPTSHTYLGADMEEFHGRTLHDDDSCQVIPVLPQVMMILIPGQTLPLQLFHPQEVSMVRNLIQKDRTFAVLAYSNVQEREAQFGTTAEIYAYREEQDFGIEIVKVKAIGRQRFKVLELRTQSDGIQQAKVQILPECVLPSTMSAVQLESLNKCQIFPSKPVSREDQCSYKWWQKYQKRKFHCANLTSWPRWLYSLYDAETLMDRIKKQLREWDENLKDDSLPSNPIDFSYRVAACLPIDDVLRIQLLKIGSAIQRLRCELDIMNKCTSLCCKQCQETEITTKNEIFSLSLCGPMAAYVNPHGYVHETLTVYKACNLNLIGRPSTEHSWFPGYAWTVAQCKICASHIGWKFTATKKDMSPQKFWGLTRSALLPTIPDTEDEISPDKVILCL

Aiolos, sequence (Q9UKT9 whole entry): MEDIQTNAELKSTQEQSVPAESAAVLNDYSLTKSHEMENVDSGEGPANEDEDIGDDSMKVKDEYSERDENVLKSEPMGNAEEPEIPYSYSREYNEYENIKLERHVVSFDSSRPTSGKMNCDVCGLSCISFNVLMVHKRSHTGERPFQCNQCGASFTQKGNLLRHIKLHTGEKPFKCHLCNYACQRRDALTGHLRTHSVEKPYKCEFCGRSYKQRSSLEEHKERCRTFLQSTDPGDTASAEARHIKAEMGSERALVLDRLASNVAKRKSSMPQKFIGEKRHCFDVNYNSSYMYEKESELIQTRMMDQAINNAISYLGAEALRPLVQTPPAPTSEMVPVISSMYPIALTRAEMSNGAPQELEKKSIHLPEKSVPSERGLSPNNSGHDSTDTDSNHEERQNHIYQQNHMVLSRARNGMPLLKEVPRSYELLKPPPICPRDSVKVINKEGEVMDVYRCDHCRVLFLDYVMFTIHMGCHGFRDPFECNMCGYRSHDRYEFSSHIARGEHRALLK
Aiolos, sequence (Q96SW2 whole entry): as the sequence (Q96SW2 whole entry) above
Aiolos, sequence (Q16531 whole entry partner): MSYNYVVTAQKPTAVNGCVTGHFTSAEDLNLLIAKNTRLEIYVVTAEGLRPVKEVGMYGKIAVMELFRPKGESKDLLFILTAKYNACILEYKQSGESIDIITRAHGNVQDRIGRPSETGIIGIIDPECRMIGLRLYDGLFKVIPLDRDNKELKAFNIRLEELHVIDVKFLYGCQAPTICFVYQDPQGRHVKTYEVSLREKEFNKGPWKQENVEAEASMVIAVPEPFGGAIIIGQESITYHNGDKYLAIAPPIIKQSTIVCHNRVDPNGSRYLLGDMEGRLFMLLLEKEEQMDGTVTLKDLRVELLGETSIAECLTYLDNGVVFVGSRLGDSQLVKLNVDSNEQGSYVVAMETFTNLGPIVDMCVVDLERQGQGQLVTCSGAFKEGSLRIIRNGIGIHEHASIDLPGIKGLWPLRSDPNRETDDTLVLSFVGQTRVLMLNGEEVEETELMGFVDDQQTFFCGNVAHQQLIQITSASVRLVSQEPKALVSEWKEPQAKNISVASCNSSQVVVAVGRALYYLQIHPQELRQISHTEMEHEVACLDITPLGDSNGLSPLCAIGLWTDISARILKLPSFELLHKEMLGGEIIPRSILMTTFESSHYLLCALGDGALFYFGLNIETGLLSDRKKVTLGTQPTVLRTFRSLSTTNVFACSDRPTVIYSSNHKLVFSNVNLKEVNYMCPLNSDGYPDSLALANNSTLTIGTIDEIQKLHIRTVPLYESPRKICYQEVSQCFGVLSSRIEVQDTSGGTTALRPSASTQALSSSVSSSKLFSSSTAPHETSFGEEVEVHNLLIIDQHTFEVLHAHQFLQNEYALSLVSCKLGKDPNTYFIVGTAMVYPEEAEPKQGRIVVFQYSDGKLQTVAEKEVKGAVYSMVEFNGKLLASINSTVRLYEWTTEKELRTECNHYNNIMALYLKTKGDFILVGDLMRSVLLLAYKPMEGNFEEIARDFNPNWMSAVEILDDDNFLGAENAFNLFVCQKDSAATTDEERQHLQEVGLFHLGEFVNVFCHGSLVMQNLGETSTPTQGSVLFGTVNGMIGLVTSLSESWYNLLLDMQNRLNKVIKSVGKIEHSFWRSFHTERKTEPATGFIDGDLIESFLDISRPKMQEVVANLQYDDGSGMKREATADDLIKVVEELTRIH

In the case of `Nc1cccc2c1C(=O)N(C1CCC(=O)NC1=O)C2=O` (centres unmarked) [Compound 13, Pomalidomide, reference compound], the Dmax (Aiolos; MM1.S, read-out: Dmax (maximal degradation achieved), Aiolos) is reported as over 95%.

`O=C1CCC(N2C(=O)c3cccc(F)c3C2=O)C(=O)N1` (centres unmarked) [Compound 17] was tested, and the “Dmax (maximal degradation achieved), Aiolos” value (Aiolos) was 83%, the IC50 (MM1S cells) was 3.57 µM and the “fold less affinity for CRBN than Pomalidomide and Compound 19” value (CRBN; compared with Pomalidomide and Compound 19) was “roughly 2 fold”. For the same compound, the Kd (CRBN) was 0.558 ± 0.051 µM.

For `Cc1cccc2c1C(=O)N(C1CCC(=O)NC1=O)C2=O` (centres unmarked) [Compound 19], the “Dmax (maximal degradation achieved), Aiolos” value (Aiolos) was 85%, the IC50 (MM1S cells) was 0.128 µM and the Kd (CRBN) was 0.325 ± 0.024 µM.

— publication PMC6291207 (ChemMedChem, 2018)
